Literature values in patent US5486526A, “Histamine H3 -receptor antagonists and therapeutic uses thereof” (The University of Toledo, priority 1993, dated 1996).

How the values were obtained:
peptic ulcer patients = details: cited from earlier work
[1] = system: animal toxicity studies or in clinical usage; details: cited from earlier work
Inositol Triphosphate = details: reference compound; cited from earlier work

In the case of `C/N=C(\S)NCCSCc1[nH]cnc1C` [metiamide], the “granulocytopenia (in words)” value (peptic ulcer patients) is listed as “low incidence of granulocytopenia”.
In the case of `CN/C(=N/CCSCc1nc[nH]c1C)NC#N` [cimetidine], the “granulocytopenia or other side effects (in words)” value [1] is given as “did not cause granulocytopenia, or any other side effects”.
In the case of `O=P(O)(O)O[C@@H]1[C@H](O)[C@H](O)[C@@H](OP(=O)(O)O)[C@H](OP(=O)(O)O)[C@H]1O` [IP3], the Ki (Inositol Triphosphate) is listed as 12.5 nM.
